Assay type in all cases: cell-based
The target in assay [1] is T1, pmeLUC (Photinus pyralis, UniProt P08659, N119G/N50D).
T1 construct: expressed in transfected cells
Put plainly: Response of HEK293-pmeLUC cells to extracellular nucleotides (affinity and selectivity of the pmeLUC probe, luminescence). The following applies: for sensitivity of pmeLUC to other nucleotides: HEK293-pmeLUC cells, FIG. 2A. The protocol: (§1) ATP was measured in the custom-made luminometer described by Rizzuto and co-workers (Brini et al., 1999; Jouaville et al., 1999). For experiments, cells were plated onto 13 mm coverslips and were placed in a 37° C. thermostatted chamber (diameter 15 mm, height 2 mm) and perfused with a saline solution supplemented with luciferin at a concentration of 5 μM. The chamber was held in a photomultiplier kept in a dark refrigerated (4° C.) box. Light emission was detected by a Thorn EMI photon counting board installed in an IBM-compatible computer. The board allowed storing of the data in the computer memory for further analysis. During the experiments the thermostatted chamber was continuously perfused with buffer by means of a Gilson peristaltic pump. Alternatively, ATP was measured in the supernatants using soluble luciferase in a Firezyme luminometer as previously described (Baricordi et al., 1999; Solini et al, 2004; Zanovello et al., 1990).
Affinity of pmeLUC for ATP is rather low, with a threshold of about 10 μM, however, subsequent ATP additions elicit further increases in light emission that allow building a calibration curve (FIG. 2B). Importantly, pmeLUC is insensitive to all other nucleotides tested (ADP, UTP, UDP and GTP) (FIG. 2A).

Assay [2] concerns the target T2, human P2X7R (Homo sapiens, UniProt Q99572).
T2 construct: expressed in transfected cells; host or cells: HEK293 (HEK293-hP2X7/pmeLUC)
T2 sequence (Q99572 1-595): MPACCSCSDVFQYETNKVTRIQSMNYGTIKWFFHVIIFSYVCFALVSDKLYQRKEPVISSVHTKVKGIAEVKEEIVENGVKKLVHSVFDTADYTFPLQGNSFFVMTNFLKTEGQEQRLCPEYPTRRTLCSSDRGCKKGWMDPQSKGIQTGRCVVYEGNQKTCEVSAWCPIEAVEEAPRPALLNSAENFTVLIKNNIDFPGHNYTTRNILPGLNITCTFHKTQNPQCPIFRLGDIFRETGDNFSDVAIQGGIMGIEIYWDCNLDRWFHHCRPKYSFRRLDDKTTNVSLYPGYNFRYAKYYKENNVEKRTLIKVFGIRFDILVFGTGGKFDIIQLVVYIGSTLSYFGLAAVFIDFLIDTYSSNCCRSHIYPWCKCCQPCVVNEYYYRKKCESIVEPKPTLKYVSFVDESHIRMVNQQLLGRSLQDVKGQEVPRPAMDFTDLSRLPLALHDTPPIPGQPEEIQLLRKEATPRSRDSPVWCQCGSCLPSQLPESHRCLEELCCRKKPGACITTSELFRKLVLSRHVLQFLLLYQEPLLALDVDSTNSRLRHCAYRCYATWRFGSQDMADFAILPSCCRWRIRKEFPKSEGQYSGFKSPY
Put plainly: ATP release through the P2X7 receptor in HEK293-hP2X7/pmeLUC cells, pmeLUC luminescence. The protocol: (§2) HEK293 cells were cultured in DMEM-F12 (Sigma-Aldrich). Media were supplemented with 10% heat-inactivated FBS, 100 U/ml penicillin and 100 μg/ml streptomycin (Invitrogen corporation, San Giuliano Milanese, Italy). ACN neuroblastoma cells were cultured in DMEM supplemented with MEM non-essential amino acid solution 100× (Sigma-Aldrich). HEK293 cells were transfected with the calcium phosphate method. Cells transiently expressing the pmeLUC construct were assayed 36 hours after transfection. Clones stably expressing pmeLUC or the P2X7R were generated by culture of the transfected cells in the presence of G418 (0.8 mg/ml, added 48 hours after transfection) for 3 weeks. Stable P2X7- or pmeLUC-expressing clones were kept in the continuous presence of 0.2 mg/ml of G418 sulphate (Geneticin) (Calbiochem, la Jolla, Calif.). ACN cells were transfected with pmeLUC by lipofectamine (Invitrogen) and tested 24 hours after transfection. Briefly, cells were incubated in 250 μl serum-free transfection medium (OPTIMEM) in the presence of lipofectamine-plus-DNA (0.4 μg per well). After 3 hours incubation 1 ml of DMEM plus 10% FBS supplemented with MEM non-essential amino acid solution 100× (Sigma-Aldrich) was added. Cells were assayed 24 hours after transfection. In order to allow a high level of plasma membrane expression of the transfected constructs, cells were incubated overnight in the presence of 1 mM DTT (Mezghrani et al, 2001). Furthermore, they were also kept at room temperature (21° C.) for two hours prior to transfer into the thermostated luminometer chamber.
as §1
Early experiments carried out not only by the authors of the present invention had shown that supernatants from cells expressing the P2X7 receptor contained a high level of ATP, which was not due to an accelerated rate of cell lysis (Baricordi et al., 1999; Adinolfi et al., 2003; Solini et al., 2004). […] To test such hypothesis several HEK293 clones were generated stably transfected with the human or rat P2X7R (HEK293-hP2X7 or HEK293-rP2X7, respectively). These clones were then transfected with pmeLUC (HEK293-P2X7/pmeLUC).

The target of assay [3] is T3, rat P2X7R (Rattus norvegicus, UniProt Q64663).
T3 construct: expressed in transfected cells; host or cells: HEK293 (HEK293-rP2X7/pmeLUC)
T3 sequence (Q64663 1-595): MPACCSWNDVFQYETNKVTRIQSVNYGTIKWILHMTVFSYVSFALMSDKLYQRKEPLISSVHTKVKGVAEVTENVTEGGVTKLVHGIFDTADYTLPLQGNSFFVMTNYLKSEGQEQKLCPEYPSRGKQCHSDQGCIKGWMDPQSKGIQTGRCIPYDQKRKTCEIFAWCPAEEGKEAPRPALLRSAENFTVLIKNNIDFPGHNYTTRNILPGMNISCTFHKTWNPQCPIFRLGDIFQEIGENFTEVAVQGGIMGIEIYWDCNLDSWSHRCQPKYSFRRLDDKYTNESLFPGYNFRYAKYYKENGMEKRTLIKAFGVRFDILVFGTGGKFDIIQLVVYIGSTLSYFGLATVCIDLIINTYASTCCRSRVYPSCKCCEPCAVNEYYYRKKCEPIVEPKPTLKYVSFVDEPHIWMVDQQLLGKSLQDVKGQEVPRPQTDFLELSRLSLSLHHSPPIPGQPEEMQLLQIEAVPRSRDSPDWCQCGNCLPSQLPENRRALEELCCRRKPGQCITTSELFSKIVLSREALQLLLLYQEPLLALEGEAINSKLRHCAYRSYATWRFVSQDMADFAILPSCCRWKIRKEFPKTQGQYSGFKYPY
The assay can be described thus: ATP release through the P2X7 receptor in HEK293-rP2X7/pmeLUC cells, pmeLUC luminescence. The protocol: as §2
ATP was measured in the custom-made luminometer described by Rizzuto and co-workers (Brini et al., 1999; Jouaville et al., 1999). […] Light emission was detected by a Thorn EMI photon counting board installed in an IBM-compatible computer. […] Alternatively, ATP was measured in the supernatants using soluble luciferase in a Firezyme luminometer as previously described (Baricordi et al., 1999; Solini et al, 2004; Zanovello et al., 1990). […]

In assay [4] the test system is HEK293-mock cells. Put plainly: Extracellular ATP in supernatants of HEK293-mock cells, soluble luciferase. The protocol:
as §1
(§3) As an independent proof that HEK293-P2X7 cells release a larger amount of ATP than mock-transfected HEK293 (HEK293-mock), extracellular ATP was measured in the supernatants using soluble luciferase. Quiescent HEK293-mock cells maintained an extracellular ATP concentration of 80±20 nM (n=12), compared to 220±34 nM (n=10) for HEK-hP2X7. […]

Assay [5] deals with HEK293-hP2X7 cells. Put plainly: Extracellular ATP in supernatants of HEK293-hP2X7 cells, soluble luciferase. Conditions: n=10, quiescent 220±34 nM. The method, then:
as §1, §3

In assay [6] the test system is HEK293-pmeLUC cells. Conditions: for ATP release triggered by agonists of G protein-coupled receptors: HEK293-pmeLUC cells, not shown. The method, then: as §2
(§4) ATP was measured in the custom-made luminometer described by Rizzuto and co-workers (Brini et al., 1999; Jouaville et al., 1999). […] Light emission was detected by a Thorn EMI photon counting board installed in an IBM-compatible computer. […] Alternatively, ATP was measured in the supernatants using soluble luciferase in a Firezyme luminometer as previously described (Baricordi et al., 1999; Solini et al, 2004; Zanovello et al., 1990).

The target in assay [7] is T4, native P2X7R (Homo sapiens, UniProt Q99572).
T4 construct: the human ACN neuroblastoma, a cell line expressing the native P2X7R; endogenous in cells; host or cells: ACN human neuroblastoma cells, transiently transfected with pmeLUC as sensor
T4 sequence (Q99572 1-595): T2 sequence (Q99572 1-595)
Put plainly: ATP release from ACN neuroblastoma cells transfected with pmeLUC. The method, then:
HEK293 cells were cultured in DMEM-F12 (Sigma-Aldrich). Media were supplemented with 10% heat-inactivated FBS, 100 U/ml penicillin and 100 μg/ml streptomycin (Invitrogen corporation, San Giuliano Milanese, Italy). ACN neuroblastoma cells were cultured in DMEM supplemented with MEM non-essential amino acid solution 100× (Sigma-Aldrich). HEK293 cells were transfected with the calcium phosphate method. Cells transiently expressing the pmeLUC construct were assayed 36 hours after transfection. Clones stably expressing pmeLUC or the P2X7R were generated by culture of the transfected cells in the presence of G418 (0.8 mg/ml, added 48 hours after transfection) for 3 weeks. Stable P2X7- or pmeLUC-expressing clones were kept in the continuous presence of 0.2 mg/ml of G418 sulphate (Geneticin) (Calbiochem, la Jolla, Calif.). ACN cells were transfected with pmeLUC by lipofectamine (Invitrogen) and tested 24 hours after transfection. […]
as §4
Differences in basal levels of luminescence emission are neutralized by expressing luminescence as percentage increase over basal (FIG. 3B), however, the higher basal luminescence of HEK293-hP2X7/pmeLUC might reflect a real increased level of pericellular ATP compared to HEK293-pmeLUC, rather than a higher expression of pmeLUC. In this case, reporting luminescence as percent increase over basal would mask such a difference in the extracellular ATP concentration. To clarify this issue, total pmeLUC protein was measured by western blotting (FIG. 3C). […] To measure quantitatively surface pmeLUC expression, different clones were analyzed by FACS. […]

T1 sequence (P08659 with tags, fused parts or gaps N50D/N119G): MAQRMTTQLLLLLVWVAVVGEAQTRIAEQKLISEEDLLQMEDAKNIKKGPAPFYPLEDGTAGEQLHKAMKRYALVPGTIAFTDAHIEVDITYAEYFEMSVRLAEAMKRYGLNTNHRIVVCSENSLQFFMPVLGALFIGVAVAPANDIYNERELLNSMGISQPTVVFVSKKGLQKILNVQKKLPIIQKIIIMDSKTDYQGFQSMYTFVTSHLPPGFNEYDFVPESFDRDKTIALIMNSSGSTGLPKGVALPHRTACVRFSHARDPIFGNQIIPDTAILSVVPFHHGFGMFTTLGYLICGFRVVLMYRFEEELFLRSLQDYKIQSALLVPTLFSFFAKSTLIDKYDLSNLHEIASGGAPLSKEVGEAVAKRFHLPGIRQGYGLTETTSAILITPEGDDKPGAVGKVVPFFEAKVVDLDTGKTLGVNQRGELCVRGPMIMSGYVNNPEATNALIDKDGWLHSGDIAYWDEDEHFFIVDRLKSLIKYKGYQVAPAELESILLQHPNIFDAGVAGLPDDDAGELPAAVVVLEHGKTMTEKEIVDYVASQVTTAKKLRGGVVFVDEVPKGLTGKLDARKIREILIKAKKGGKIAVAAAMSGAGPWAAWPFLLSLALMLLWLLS

For the compound `Nc1ncnc2c1ncn2[C@@H]1O[C@H](COP(=O)(O)OP(=O)(O)O)[C@@H](O)[C@H]1O` [ADP], the “sensitivity of pmeLUC to other nucleotides” value (“sensitivity of pmeLUC” below) in assay [1] was “insensitive”.
As to `Nc1ncnc2c1ncn2[C@@H]1O[C@H](COP(=O)(O)OP(=O)(O)OP(=O)(O)O)[C@@H](OC(=O)c2ccc(C(=O)c3ccccc3)cc2)[C@H]1O` [BzATP, Benzoyl ATP], the figures for the “luminescence increase on addition of BzATP” value in assay [2] (HEK293-hP2X7/pmeLUC cells), in assay [3] (HEK293-rP2X7/pmeLUC cells (not shown)) and in assay [6] (HEK293-pmeLUC cells (no P2X7R)) were “large luminescence increase”, “large luminescence increase” and “not”, respectively. Moreover, the “peak ATP concentration from calibration of BzATP triggered luminescence increase” value in assay [2] (HEK293-hP2X7/pmeLUC cells) is recorded as “about 250 μM”. Moreover, the “effect of BzATP on extracellular ATP in supernatants” value in assay [4] is reported as “no effect”. The “extracellular ATP level in supernatants after addition of BzATP” value in assay [5] is reported as “about 400±55 nM”. The “ATP release induced by BzATP” value in assay [7] (ACN neuroblastoma cells, FIG. 3E) was “large ATP release”.
Turning to `Nc1nc2c(ncn2[C@@H]2O[C@H](COP(=O)(O)OP(=O)(O)OP(=O)(O)O)[C@@H](O)[C@H]2O)c(=O)[nH]1` [GTP], in assay [1], the “sensitivity of pmeLUC” value is “insensitive”.
For `O=c1ccn([C@@H]2O[C@H](COP(=O)(O)OP(=O)(O)O)[C@@H](O)[C@H]2O)c(=O)[nH]1` [UDP], in assay [1], the “sensitivity of pmeLUC” value is recorded as “insensitive”.
Same read-out and setting: next, `O=c1ccn([C@@H]2O[C@H](COP(=O)(O)OP(=O)(O)OP(=O)(O)O)[C@@H](O)[C@H]2O)c(=O)[nH]1` [UTP]: “insensitive”.
Regarding `C[N+](C)(C)CCOC(N)=O` [carbachol], the “ATP release triggered by agonists of G protein-coupled receptors” value in assay [6] was “negligible ATP release”.
On the same count and under the same terms, the value for `NCCc1c[nH]cn1` [histamine] was “negligible ATP release”.
Regarding `Nc1ncnc2c1ncn2[C@@H](C=O)O[C@@H](C=O)COP(=O)(O)OP(=O)(O)OP(=O)(O)O` [oATP, oxidized ATP], in assay [2] (HEK293-hP2X7/pmeLUC, n=8, untreated 12250±1500 cps), the “basal luminescence after oATP pretreatment” value was found to be 5800±1300 cps. For the same compound, the “ATP-induced luminescence increase in oATP-treated cells” value in assay [2] (HEK293-hP2X7/pmeLUC, pre-treatment with oATP, FIG. 4B) is recorded as “matches exactly that of HEK293-pmeLUC”; in assay [3] (HEK293-rP2X7/pmeLUC, pre-treatment with oATP, FIG. 4A) it was “matches exactly that of HEK293-pmeLUC”. Also, the “block of the BzATP-triggered luminescence increase” value in assay [2] (pre-treatment with 300 μM oATP for 2 hours, HEK293-hP2X7/pmeLUC) is listed as “fully blocked”. In addition, the “effect on ATP-dependent luminescence increase (calibration curve; inhibition of luciferase itself)” value in assay [1] (calibration curve in presence and absence of oATP, not shown) was “not affected”. Moreover, the “block of BzATP-induced ATP release” value in assay [7] (ACN cells, 300 μM oATP) is “fully blocked”. Also, in assay [7] (ACN cells, n=5, before treatment 3500±350 cps), the “basal luminescence total level after treatment with oATP” value came to 1500±260 cps.

(Values after patent US20100015603A1, “Chimeric proteins for measuring atp concentrations in pericellular space and related screening method” (priority 2005, published 2010).)
